Assay results as given in US20120040920A1, “OLIGOSACCHARIDE ALDONIC ACIDS AND THEIR TOPICAL USE” (priority 1999, published 2012).

Experiments:
[1] = antioxidant property, banana peel test method; conditions: 2×2 cm peels in 5 ml 0.1 M test solution; water control tan within 4 hours
Description: (§1) An antioxidant may be defined as a substance capable of preventing or inhibiting oxidation. […] The antioxidant property is readily determined by using any one of the following test methods: prevention or retardation of air oxidation of (a) anthralin, (b) hydroquinone, or (c) banana peel. A freshly prepared anthralin solution or cream is bright yellow, and an air oxidized one is brownish or black. A hydroquinone solution or cream is colorless or white color, and an air oxidized one is brownish or black. A freshly peeled banana peel is light yellow in color and an oxidized one ranges in color from tan, dark tan, brown to brownish black.
For example, in control experiments, fresh banana peels cut into sizes of 1×2 cm in 50 mm plastic petri dishes containing 5 ml water at neutral or acidic pH changed in color from white-yellowish to tan within 6 hours at room temperature, and changed to dark tan color during the next period of 24 to 72 hours.
Antioxidant property of an oligosaccharide aldonic acid may also be determined by utilizing banana peel test method as follows.
A fresh ripe banana peel cut into sizes of 2×2 cm has the outer layer light yellow in color. These freshly cut banana peels after exposed to air or immersed in an aqueous solution without an antioxidant in 50 mm plastic petri dishes rapidly changed in color from yellowish to tan within 3 hours, dark tan within 24 hours and brown black after 72 hours. A test substance including a positive control such as vitamin C, citric acid or N-acetylcysteine was prepared as 0.1 M concentration, and each test dish contained 5 ml test solution. Freshly cut banana peels 2×2 cm in sizes were immersed in 5 ml test solutions including known antioxidants and vehicle controls with pH at 7.0 and 4.0. […] The same results were also found for the known antioxidant substances; vitamin C, citric acid and N-acetylcysteine.

[2] = antioxidant property, hydroquinone test method; assay type: physicochemical; conditions: oil-in-water cream, 2% hydroquinone, test substance 0.4 M, room temperature, 5 days
Description: as §1
Antioxidant property of an oligosaccharide aldonic acid may also be determined by utilizing hydroquinone test method as follows. Hydroquinone also known as 1,4-dihydroxybenzene is a white powder, and a composition containing hydroquinone without a suitable antioxidant is chemically unstable even at room temperature. For example, hydroquinone 2% in an oil-in-water cream changed in color from white to grey within 2 hours, and the cream became light brown within 48 hours and dark brown after 72 hours at room temperature.

[3] = gel matrix formation on evaporation of an aqueous solution at room temperature; assay type: physicochemical; conditions: for gel matrix formation: 1 g in 1 ml water, 20-25° C., slow evaporation; for acid content of the gel film / water retained in the gel film (gel matrix): by weight, 1 g acid in 1 ml water evaporated at room temperature; for original water evaporated: 1 g acid in 1 ml water, room temperature
Description: In contrast to an alpha hydroxyacid and polyhydroxyacid, an oligosaccharide aldonic acid can form a gel matrix when its aqueous solution is evaporated at room temperature. The transparent gel obtained retains certain amount of water forming a clear gel matrix. The amount of water retention depends on individual oligosaccharide aldonic acid. Examples of gel matrix preparations are provided below.
In one example, a gel matrix can be formed when aqueous solution comprising an oligosaccharide aldonic acid is evaporated at room temperature. The transparent gel thus obtained retains certain amount of water forming a clear gel matrix. The amount of water retention depends on individual oligosaccharide aldonic acid. For example, maltobionic acid 1 g in a beaker was dissolved in water 1 ml, and the solution thus obtained was left at room temperature. Fifty percent of the original water had been evaporated at the end of 24 hours, and 57% at the end of 48 hours, and 60% at the end of 72 hours, and no more or minimal evaporation of water could be detected after 72 hours. A clear gel film thus obtained contained 29% water complexed with maltobionic acid molecules. In the same manner, lactobionic acid formed a clear gel matrix with 14% water molecules and cellobionic acid formed a transparent gel with 7% water molecules.
A typical experiment to determine a gel matrix formation of an oligosaccharide aldonic acid may be carried out as follows.
Maltobionic acid 1 g in a beaker of 3.6 cm diameter and 3.6 cm height was dissolved in water 1 ml, and the solution thus obtained was left at room temperature between 20-25° C. to allow a slow evaporation of the water. […] The continuous transparent film thus obtained consisted of 71% maltobionic acid and 29% water by weight, and was formed as a complex gel matrix between maltobionic acid molecules and water molecules.

[4] = antioxidant property, anthralin test method; assay type: physicochemical; conditions: oil-in-water cream, 0.4% anthralin, test substance 0.1 M, 24 hours
Description: as §1
Antioxidant property of an oligosaccharide aldonic acid may be determined by utilizing anthralin test method as follows.
Anthralin also known as dithranol is a yellowish powder, and a composition containing anthralin without a suitable antioxidant is chemically unstable even at room temperature. For example, anthralin 0.05% in an oil-in-water cream changed in color from yellow to gray within 24 hours at room temperature, and the cream became brownish within 48 hours. Under anhydrous condition, anthralin 0.05% ointment prepared from white petrolatum 2 parts and mineral oil 1 part by weight changed in color from bright yellow to grayish yellow within 24 hours, and the ointment became brownish after 12 days at room temperature.
Based on the above observations, an oil-in-water cream containing 0.4% anthralin with or without a known antioxidant was used as a positive or vehicle control.

[5] = system: acute erythema on thighs; assay: topical treatment of acute erythema after hot shower with alkaline soap; assay type: in vivo, human; conditions: 3% partially neutralized cream, left thigh, person; control side persisted
Description: A subject with sensitive skin developed acute erythema on their both thighs after taking hot shower using alkaline soap. They applied 3% partially neutralized maltobionic acid cream on their left thigh and a control cream on their right thigh.

[6] = system: chronic atopic eczema and pruritic dry skin; assay: topical treatment of chronic atopic eczema and pruritic dry skin; assay type: in vivo, human; conditions: 17% cream twice daily, person
Description: A subject with chronic atopic eczema and pruritic dry skin topically applied twice daily maltobionic acid 17% cream to itchy skin areas of eczema and dry skin lesions for two weeks.

[7] = system: xerosis with flaky dry skin; assay: topical treatment of xerosis of forearms; assay type: in vivo, human; conditions: 5% water-in-oil cream twice daily, two weeks, person
Description: A subject, having xerosis with flaky dry skin condition of their forearms topically applied twice daily maltobionic acid 5% water-in-oil cream for two weeks.

For CC(=O)N[C@@H](CS)C(=O)O [N-acetylcysteine, reference compound], the “colour change of banana peels” value [1] was “same results” and the “colour change of hydroquinone cream” value [2] was “did not change color”.
For O=C(O)[C@H](O)[C@@H](O)[C@H](O[C@@H]1O[C@H](CO)[C@@H](O)[C@H](O)[C@H]1O)[C@H](O)CO [cellobionic acid], the “colour change of hydroquinone cream” value [2] was “did not change color”, the gel matrix formation [3] was “clear continuous gel film was formed” and the “acid content of the gel film” value [3] was 93%. For the same compound, the “water retained in the gel film (gel matrix)” value (“water retained in the gel film” for short) [3] was 7% and the “colour change of anthralin cream” value [4] was “did not change the color”.
With O=C(O)CC(O)(CC(=O)O)C(=O)O [citric acid, reference compound] the “colour change of banana peels” value [1] was “same results” and the “colour change of hydroquinone cream” value [2] was “did not change color”.
For O=C(O)[C@H](O)[C@@H](O)[C@H](O)[C@H](O)CO [gluconic acid, reference compound], the gel matrix formation [3] was “did not form any form of a gel matrix”.
With O=C(O)[C@H](O)[C@@H](O)[C@H](O[C@@H]1O[C@H](CO)[C@H](O)[C@H](O)[C@H]1O)[C@H](O)CO [maltobionic acid] the erythema and itch [5] was “disappeared within a few minutes”, the eczema lesions ([6]; after two weeks) was “improved significantly” and the “condition of treated skin” value ([6]; within a week) was “became smooth and less dry and itchy”. For the same compound, the “colour change of banana peels” value [1] was “did not change color”, the “colour change of hydroquinone cream” value [2] was “did not change color” and the original water evaporated ([3]; end of 24 hours) was “Fifty”. It also gave an original water evaporated ([3]; end of 48 hours) of 57%, an original water evaporated ([3]; end of 72 hours) of 60% and an original water evaporated ([3]; end of 96 hours) of 60.5%. For the same compound, the gel matrix formation [3] was “clear continuous gel film was formed”, the “water retained in the gel film” value [3] was 29% and the “acid content of the gel film” value ([3]; listed as Maltobionic acid) was 71%. For the same compound, the “water retained in the gel film” value ([3]; listed as Maltobionic acid) was 29%, the dry skin condition [7] was “dry skin condition disappeared completely” and the “colour change of anthralin cream” value [4] was “did not change the color”.
With O=C(O)C(=O)O [oxalic acid, reference compound] the “colour change of anthralin cream” value [4] was “did not change the color”.
With O=C1O[C@H]([C@@H](O)CO)C(O)=C1O [vitamin C, reference compound] the “colour change of banana peels” value [1] was “same results”, the “colour change of hydroquinone cream” value [2] was “did not change color” and the “colour change of anthralin cream” value [4] was “did not change the color”.
